Where two headings read alike, the source gives them in different places.
Tests used:
Papain = biological target: T1, Papain (Carica papaya, UniProt P00784); assay: Specificity of the inhibition: papain; assay type: biochemical; conditions: for inhibition at 10 µM: 10^-5 M; for inhibition at 0.1 µM: 10^-7 M
T1 sequence (P00784 134-345): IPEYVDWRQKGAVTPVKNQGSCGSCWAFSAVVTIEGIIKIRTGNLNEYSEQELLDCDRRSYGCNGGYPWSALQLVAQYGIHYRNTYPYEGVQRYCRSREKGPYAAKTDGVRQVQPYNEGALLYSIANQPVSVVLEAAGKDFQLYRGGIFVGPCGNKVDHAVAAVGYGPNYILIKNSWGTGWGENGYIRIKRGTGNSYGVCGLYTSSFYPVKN
Procedure: (§1) The specificity of the inhibition was measured by studying several other enzymes, including metalloporteases other than collagenase.

Human collagenase = biological target: T2, Human collagenase (Homo sapiens, UniProt P03956); assay: Specificity of the inhibition: human collagenase; assay type: biochemical; conditions: for inhibition at 10 µM: 10^-5 M; for inhibition at 0.1 µM: 10^-7 M
T2 construct: isolated from synovial cells in culture; endogenous in cells; host or cells: human synovial cells in culture
T2 sequence (P03956 100-469): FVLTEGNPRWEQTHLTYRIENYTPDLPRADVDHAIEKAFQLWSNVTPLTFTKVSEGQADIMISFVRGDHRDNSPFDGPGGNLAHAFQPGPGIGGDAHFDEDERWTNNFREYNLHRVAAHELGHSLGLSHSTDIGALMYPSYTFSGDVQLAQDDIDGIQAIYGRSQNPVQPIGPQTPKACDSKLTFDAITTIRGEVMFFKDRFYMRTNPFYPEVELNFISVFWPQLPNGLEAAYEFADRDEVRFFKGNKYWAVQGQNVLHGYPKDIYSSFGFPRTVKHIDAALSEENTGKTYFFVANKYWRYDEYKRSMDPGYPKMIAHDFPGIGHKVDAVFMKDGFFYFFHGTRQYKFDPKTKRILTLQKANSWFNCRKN
Procedure: (§2) The anticollagenase activity of the compounds according to the present invention was determined on synovial collagenase of porcine or human origin, isolated from synovial cells in culture according to the procedure described by Cawston and Barrett (Cawston and Barrett (1979), Anal. Biochem. 99, 340-345). The collagenase was incubated at 37° C. with radiolabeled collagen and its activity was determined by the release of the soluble peptides produced by enzymatic degradation of the collagen. The inhibitory concentration IC50 for each compound was determined by measuring the activity of the enzyme in the presence of the inhibitor at a concentration of between 10^-5 and 10^-8 M.
as §1

Trypsin = biological target: T3, Trypsin (Bos taurus, UniProt P00760); assay: Specificity of the inhibition: trypsin; assay type: biochemical; conditions: for inhibition at 10 µM: 10^-5 M; for inhibition at 0.1 µM: 10^-7 M
T3 sequence (P00760 24-246): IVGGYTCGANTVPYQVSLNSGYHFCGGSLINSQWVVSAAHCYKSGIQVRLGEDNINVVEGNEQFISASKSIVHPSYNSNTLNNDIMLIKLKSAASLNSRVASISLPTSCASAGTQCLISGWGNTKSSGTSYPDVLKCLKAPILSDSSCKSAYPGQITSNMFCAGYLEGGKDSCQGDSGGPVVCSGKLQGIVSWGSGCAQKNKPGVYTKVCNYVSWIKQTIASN
Procedure: as §1

Pepsin = Pepsin (Sus scrofa, UniProt P00791); assay: Specificity of the inhibition: pepsin; assay type: biochemical; conditions: for inhibition at 10 µM: 10^-5 M; for inhibition at 0.1 µM: 10^-7 M
Pepsin, sequence (P00791 60-385): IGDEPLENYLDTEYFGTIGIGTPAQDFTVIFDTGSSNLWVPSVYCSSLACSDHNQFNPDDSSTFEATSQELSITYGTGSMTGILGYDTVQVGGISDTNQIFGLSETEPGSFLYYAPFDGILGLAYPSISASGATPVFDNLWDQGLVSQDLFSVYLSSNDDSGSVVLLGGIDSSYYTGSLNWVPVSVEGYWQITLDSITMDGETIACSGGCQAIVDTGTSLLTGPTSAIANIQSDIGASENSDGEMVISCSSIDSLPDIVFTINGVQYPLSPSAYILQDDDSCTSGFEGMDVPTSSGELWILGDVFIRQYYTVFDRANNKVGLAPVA
Procedure: as §1

Carboxypeptidase B = biological target: T4, Carboxypeptidase B (Sus scrofa, UniProt P09955); assay: Specificity of the inhibition: carboxypeptidase B; assay type: biochemical; conditions: for inhibition at 10 µM: 10^-5 M; for inhibition at 0.1 µM: 10^-7 M
T4 sequence (P09955 111-416): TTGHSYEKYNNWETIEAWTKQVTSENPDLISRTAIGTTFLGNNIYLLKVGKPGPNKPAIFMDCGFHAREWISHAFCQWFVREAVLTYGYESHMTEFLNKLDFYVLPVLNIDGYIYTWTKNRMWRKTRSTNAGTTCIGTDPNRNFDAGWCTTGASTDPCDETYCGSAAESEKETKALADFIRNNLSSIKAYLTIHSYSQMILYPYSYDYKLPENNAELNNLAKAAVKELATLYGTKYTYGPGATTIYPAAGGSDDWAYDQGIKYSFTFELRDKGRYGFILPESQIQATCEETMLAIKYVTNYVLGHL
Procedure: as §1

Plasmin = Plasmin (Homo sapiens, UniProt P00747); assay: Specificity of the inhibition: plasmin; assay type: biochemical; conditions: for inhibition at 10 µM: 10^-5 M; for inhibition at 0.1 µM: 10^-7 M
Plasmin, sequence (P00747 581-810 limits assumed, species assumed): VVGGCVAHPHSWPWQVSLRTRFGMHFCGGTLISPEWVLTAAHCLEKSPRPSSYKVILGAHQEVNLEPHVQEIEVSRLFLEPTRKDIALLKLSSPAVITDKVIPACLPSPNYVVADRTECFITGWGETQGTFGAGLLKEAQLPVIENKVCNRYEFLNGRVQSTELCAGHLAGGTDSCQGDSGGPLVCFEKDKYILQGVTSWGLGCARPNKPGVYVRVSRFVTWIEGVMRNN
Plasmin, sequence (P00747 97-580 partner limits assumed, species assumed): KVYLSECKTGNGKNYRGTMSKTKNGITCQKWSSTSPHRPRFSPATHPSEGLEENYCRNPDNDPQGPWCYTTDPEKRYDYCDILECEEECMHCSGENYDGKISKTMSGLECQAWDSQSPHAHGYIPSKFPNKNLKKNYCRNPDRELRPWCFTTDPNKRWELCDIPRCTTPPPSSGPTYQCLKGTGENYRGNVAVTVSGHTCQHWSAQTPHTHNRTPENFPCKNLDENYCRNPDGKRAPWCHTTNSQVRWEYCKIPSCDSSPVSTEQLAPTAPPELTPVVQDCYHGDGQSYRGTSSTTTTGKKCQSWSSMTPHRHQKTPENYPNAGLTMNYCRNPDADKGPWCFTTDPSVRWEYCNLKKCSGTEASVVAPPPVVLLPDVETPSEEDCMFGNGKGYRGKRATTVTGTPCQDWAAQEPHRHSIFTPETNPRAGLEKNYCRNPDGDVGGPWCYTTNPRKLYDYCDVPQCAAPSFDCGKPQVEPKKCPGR
Procedure: as §1

Carboxypeptidase A = biological target: T5, Carboxypeptidase A (Bos taurus, UniProt P00730); assay: Specificity of the inhibition: carboxypeptidase A; assay type: biochemical; conditions: for inhibition at 10 µM: 10^-5 M; for inhibition at 0.1 µM: 10^-7 M
T5 sequence (P00730 111-419): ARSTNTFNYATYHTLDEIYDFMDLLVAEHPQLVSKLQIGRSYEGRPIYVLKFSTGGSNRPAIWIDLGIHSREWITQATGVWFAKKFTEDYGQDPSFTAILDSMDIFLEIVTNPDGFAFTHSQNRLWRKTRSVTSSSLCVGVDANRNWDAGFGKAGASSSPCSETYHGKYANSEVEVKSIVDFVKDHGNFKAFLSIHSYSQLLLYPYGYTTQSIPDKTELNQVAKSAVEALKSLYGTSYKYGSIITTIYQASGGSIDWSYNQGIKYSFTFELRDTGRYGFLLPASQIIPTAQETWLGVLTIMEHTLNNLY
Procedure: as §1

Porcine collagenase = biological target: T6, Porcine collagenase (Sus scrofa, UniProt P21692); assay: Specificity of the inhibition: porcine collagenase; assay type: biochemical; conditions: for inhibition at 10 µM: 10^-5 M; for inhibition at 0.1 µM: 10^-7 M
T6 construct: isolated from synovial cells in culture; endogenous in cells; host or cells: porcine synovial cells in culture
T6 sequence (P21692 100-469): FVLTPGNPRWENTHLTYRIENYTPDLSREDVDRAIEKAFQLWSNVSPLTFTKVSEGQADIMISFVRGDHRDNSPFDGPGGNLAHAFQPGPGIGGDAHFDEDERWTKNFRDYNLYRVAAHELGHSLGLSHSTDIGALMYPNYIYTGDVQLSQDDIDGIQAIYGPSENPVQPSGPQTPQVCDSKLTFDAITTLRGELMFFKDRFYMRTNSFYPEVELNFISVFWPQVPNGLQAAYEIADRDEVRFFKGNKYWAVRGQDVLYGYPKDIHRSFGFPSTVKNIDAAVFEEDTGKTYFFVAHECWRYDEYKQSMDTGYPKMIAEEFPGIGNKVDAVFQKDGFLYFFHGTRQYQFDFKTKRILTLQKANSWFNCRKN
Procedure: as §2, §1

Thrombin = Thrombin (Homo sapiens, UniProt P00734); assay: Specificity of the inhibition: thrombin; assay type: biochemical; conditions: for inhibition at 10 µM: 10^-5 M; for inhibition at 0.1 µM: 10^-7 M
Procedure: as §1

ACE = ACE (Homo sapiens, UniProt P12821); assay: Specificity of the inhibition: ACE; assay type: biochemical; conditions: for inhibition at 10 µM: 10^-5 M; for inhibition at 0.1 µM: 10^-7 M
ACE, sequence (P12821 30-1306, species assumed): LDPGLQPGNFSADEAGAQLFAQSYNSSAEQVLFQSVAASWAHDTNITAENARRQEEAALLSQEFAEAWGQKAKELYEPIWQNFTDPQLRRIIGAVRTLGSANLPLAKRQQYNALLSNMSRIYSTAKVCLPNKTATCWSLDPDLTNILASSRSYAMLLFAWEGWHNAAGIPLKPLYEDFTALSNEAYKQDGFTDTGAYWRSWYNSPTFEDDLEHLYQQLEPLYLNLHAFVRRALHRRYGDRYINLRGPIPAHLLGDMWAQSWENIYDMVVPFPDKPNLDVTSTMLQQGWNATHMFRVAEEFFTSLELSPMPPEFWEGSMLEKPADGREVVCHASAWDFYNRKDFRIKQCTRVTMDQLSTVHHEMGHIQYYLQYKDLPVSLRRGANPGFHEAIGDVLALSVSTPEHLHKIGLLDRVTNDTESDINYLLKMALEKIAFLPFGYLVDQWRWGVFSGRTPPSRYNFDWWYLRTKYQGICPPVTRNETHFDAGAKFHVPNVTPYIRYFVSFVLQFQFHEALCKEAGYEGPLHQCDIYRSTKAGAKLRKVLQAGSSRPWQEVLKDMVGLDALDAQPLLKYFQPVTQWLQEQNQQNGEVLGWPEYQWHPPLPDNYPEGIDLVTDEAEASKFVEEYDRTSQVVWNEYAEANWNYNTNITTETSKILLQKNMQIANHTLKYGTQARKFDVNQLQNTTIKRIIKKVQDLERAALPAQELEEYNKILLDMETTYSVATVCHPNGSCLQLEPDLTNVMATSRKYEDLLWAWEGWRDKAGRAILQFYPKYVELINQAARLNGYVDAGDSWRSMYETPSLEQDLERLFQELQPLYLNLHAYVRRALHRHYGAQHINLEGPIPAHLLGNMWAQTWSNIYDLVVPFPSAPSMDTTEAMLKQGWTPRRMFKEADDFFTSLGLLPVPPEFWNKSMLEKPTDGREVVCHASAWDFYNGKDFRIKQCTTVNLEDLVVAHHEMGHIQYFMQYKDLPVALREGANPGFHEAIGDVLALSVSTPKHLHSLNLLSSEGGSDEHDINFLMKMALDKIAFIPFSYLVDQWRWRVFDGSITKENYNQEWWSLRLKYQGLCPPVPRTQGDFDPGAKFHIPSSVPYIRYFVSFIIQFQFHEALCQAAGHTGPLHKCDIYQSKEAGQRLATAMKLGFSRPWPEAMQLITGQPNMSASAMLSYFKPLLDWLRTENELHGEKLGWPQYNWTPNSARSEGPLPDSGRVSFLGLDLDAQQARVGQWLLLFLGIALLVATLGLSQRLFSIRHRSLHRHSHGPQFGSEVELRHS
Procedure: as §1

α-Chymotrypsin = α-Chymotrypsin (Bos taurus, UniProt P00766); assay: Specificity of the inhibition: α-chymotrypsin; assay type: biochemical; conditions: for inhibition at 10 µM: 10^-5 M; for inhibition at 0.1 µM: 10^-7 M
Procedure: as §1

bone resorption = assay: Bone resorption model in isolated organ (Ca++ release); assay type: cell-based
Description: Anticollagenase activity has also been determined in a bone resorption model described by Delaisse et al. (Delaisse et al. (1985), Biochem. Biophys. Res. commun., 133, 483-490). This model, which utilizes the degradation of cartilage and bone in an isolated organ, is more physiological than direct determination of the enzyme activity in vitro. The results of the tests are collated in Table II; the same inhibitors are found to be active in both systems.

[1] = biological target: synovial collagenase of porcine or human origin; assay: Anticollagenase activity: release of soluble peptides from radiolabeled collagen; assay type: biochemical
Procedure: as §2
Representative results of these tests are given for the compounds according to the invention in Table I.

[2] = Table I, % inhibition 50, read-out: Concentration for 50 % inhibition (IC50), anticollagenase activity

Structure (SMILES) | inhibition at 10 µM (Papain) [%] | inhibition at 0.1 µM (Papain) [%] | inhibition at 10 µM (Human collagenase) [%] | inhibition at 0.1 µM (Human collagenase) [%] | inhibition at 10 µM (Trypsin) [%] | inhibition at 0.1 µM (Trypsin) [%] | inhibition at 10 µM (Pepsin) [%] | inhibition at 0.1 µM (Pepsin) [%] | inhibition at 10 µM (Carboxypeptidase B) [%] | inhibition at 0.1 µM (Carboxypeptidase B) [%] | inhibition at 10 µM (Plasmin) [%] | inhibition at 0.1 µM (Plasmin) [%] | inhibition at 10 µM (Carboxypeptidase A) [%] | inhibition at 0.1 µM (Carboxypeptidase A) [%] | inhibition at 10 µM (Porcine collagenase) [%] | inhibition at 0.1 µM (Porcine collagenase) [%] | inhibition at 10 µM (Thrombin) [%] | inhibition at 0.1 µM (Thrombin) [%] | inhibition at 10 µM (ACE) [%] | IC50 [1, 2] [nM] | also measured
CC(C)CC(CC(=O)NO)C(=O)N[C@H](C(=O)NCc1ccccc1)C(C)C (single isomer, unassigned) [Example 2, N-Benzyl-Nα-(N-hydroxy-2-isobutylsuccinamoyl)-L-valinamide] | 5 | 0 | 100 | 30 | 0 | 0 | 19 | 0 | 0 | 0 | 0 | 0 | 0 | 0 | 100 | 52 | 5 | 0 | 40 |  | inhibition at 0.1 µM (ACE): 4%; inhibition at 10 µM (α-Chymotrypsin): 0%; inhibition at 0.1 µM (α-Chymotrypsin): 0%
CC(C)CC(CC(=O)NO)C(=O)N[C@H](C(=O)NCc1ccccc1)C(C)C (single isomer, unassigned) [Example 2, isomer A, N-Benzyl-Nα-(N-hydroxy-2-isobutylsuccinamoyl)-L-valinamide] |  |  |  |  |  |  |  |  |  |  |  |  |  |  |  |  |  |  |  |  | % protection against bone resorption (Ca++ release) (bone resorption; 8 μM): 0%; % protection against bone resorption (Ca++ release) (bone resorption; 25 μM): 0%; IC50 ([1]; Table II, read-out: collagenase inhibition IC50): 16000 nM
CC(C)CC(CC(=O)NO)C(=O)N[C@H](C(=O)NCc1ccccc1)C(C)C (single isomer, unassigned) [Example 3, N-Benzyl-Nα-(N-hydroxy-2-isobutylsuccinamoyl)-L-valinamide, B form] |  |  |  |  |  |  |  |  |  |  |  |  |  |  |  |  |  |  |  | 35 | % protection against bone resorption (Ca++ release) (bone resorption; 8 μM, listed as Example 2, isomer B): 90-100%; % protection against bone resorption (Ca++ release) (bone resorption; 25 μM, listed as Example 2, isomer B): 90-100%; IC50 ([1]; Table II, listed as Example 2, isomer B, read-out: collagenase inhibition IC50): 35 nM
CC(C)CC(CC(=O)NO)C(=O)N[C@H](C(=O)NCc1ccc(C(F)(F)F)cc1)C(C)C (single isomer, unassigned) [Example 4, N-(4-Trifluoromethylbenzyl)-Nα-(N-hydroxy-2-isobutylsuccinamoyl)-L-valinamide, B form] |  |  |  |  |  |  |  |  |  |  |  |  |  |  |  |  |  |  |  | 80 | 
CC(C)CC(CC(=O)NO)C(=O)N[C@H](C(=O)NCCc1ccccc1)C(C)C (single isomer, unassigned) [Example 5, N-Phenethyl-Nα-(N-hydroxy-2-isobutylsuccinamoyl)-L-valinamide, B form] |  |  |  |  |  |  |  |  |  |  |  |  |  |  |  |  |  |  |  | 75 | 
CC(C)CC(CC(=O)NO)C(=O)N[C@H](C(N)=O)C(C)C (stereo partly drawn) [Example 1, Nα-(N-hydroxy-2-isobutylsuccinamoyl)-L-valinamide] | 5 | 0 | 100 | 12 | 0 | 0 | 19 | 0 | 0 | 0 | 0 | 0 | 0 | 0 | 100 | 23 | 0 | 0 | 4 | 320 | inhibition at 0.1 µM (ACE): 0%; inhibition at 10 µM (α-Chymotrypsin): 0%; inhibition at 0.1 µM (α-Chymotrypsin): 0%
